Experimental data reported in ChEMBL document CHEMBL4507292 (2021).

Assays:
[1] = target: Focal adhesion kinase 1 (Homo sapiens) (UniProt Q05397); conditions: Compound concentration 1000.0 nM
[2] = target: Serine/threonine-protein kinase Nek5 (Homo sapiens) (UniProt Q6P3R8); conditions: Compound concentration 1000.0 nM
[3] = target: Beta-3 adrenergic receptor (Homo sapiens, UniProt P13945); test: GPCRScan assay: inhibition of Beta3; parameters: radioligand conc. used [nm] 0.2 – 0.5, parental cells HEK Flp-In
[4] = target: Serine/threonine-protein kinase PAK 3 (Homo sapiens) (UniProt O75914); conditions: Compound concentration 1000.0 nM
[5] = target: cGMP-dependent protein kinase 2 (Homo sapiens) (UniProt Q13237); conditions: Compound concentration 1000.0 nM
[6] = target: G protein-coupled receptor kinase 4 (Homo sapiens) (UniProt P32298); conditions: Compound concentration 1000.0 nM
[7] = target: Serine/threonine-protein kinase 32B (Homo sapiens) (UniProt Q9NY57); conditions: Compound concentration 1000.0 nM
[8] = target: Serine/threonine-protein kinase 35 (Homo sapiens) (UniProt Q8TDR2); conditions: Compound concentration 1000.0 nM
[9] = tested on: Tyrosine-protein kinase ABL1 (Homo sapiens), P00519 [Q252H]; conditions: Compound concentration 1000.0 nM
[10] = target: Protein kinase C theta type (Homo sapiens) (UniProt Q04759); conditions: Compound concentration 1000.0 nM
[11] = target: RAC-beta serine/threonine-protein kinase (Homo sapiens) (UniProt P31751); conditions: Compound concentration 1000.0 nM
[12] = target: Beta-adrenergic receptor kinase 1 (Homo sapiens) (UniProt P25098); conditions: Compound concentration 1000.0 nM
[13] = target: Tyrosine-protein kinase ABL1 (Homo sapiens) (UniProt P00519); conditions: Compound concentration 1000.0 nM
[14] = target: Casein kinase I isoform epsilon (Homo sapiens) (UniProt P49674); conditions: Compound concentration 1000.0 nM
D(1A) dopamine receptor = D(1A) dopamine receptor (Homo sapiens, UniProt P21728); conditions: Compound concentration 10.0 uM
[15] = target: Serine/threonine-protein kinase LATS2 (Homo sapiens) (UniProt Q9NRM7); conditions: Compound concentration 1000.0 nM
[16] = target: Serine/threonine-protein kinase 17A (Homo sapiens) (UniProt Q9UEE5); conditions: Compound concentration 1000.0 nM
[17] = target: Muscarinic acetylcholine receptor M4 (Homo sapiens) (UniProt P08173); conditions: Compound concentration 10.0 uM
[18] = target: Mitogen-activated protein kinase 4 (Homo sapiens) (UniProt P31152); conditions: Compound concentration 1000.0 nM
[19] = target: Serine/threonine-protein kinase Nek3 (Homo sapiens) (UniProt P51956); conditions: Compound concentration 1000.0 nM
[20] = target: T1, 5-hydroxytryptamine receptor 2C (Homo sapiens) (UniProt P28335); conditions: Compound concentration 10.0 uM
T1 sequence (whole entry): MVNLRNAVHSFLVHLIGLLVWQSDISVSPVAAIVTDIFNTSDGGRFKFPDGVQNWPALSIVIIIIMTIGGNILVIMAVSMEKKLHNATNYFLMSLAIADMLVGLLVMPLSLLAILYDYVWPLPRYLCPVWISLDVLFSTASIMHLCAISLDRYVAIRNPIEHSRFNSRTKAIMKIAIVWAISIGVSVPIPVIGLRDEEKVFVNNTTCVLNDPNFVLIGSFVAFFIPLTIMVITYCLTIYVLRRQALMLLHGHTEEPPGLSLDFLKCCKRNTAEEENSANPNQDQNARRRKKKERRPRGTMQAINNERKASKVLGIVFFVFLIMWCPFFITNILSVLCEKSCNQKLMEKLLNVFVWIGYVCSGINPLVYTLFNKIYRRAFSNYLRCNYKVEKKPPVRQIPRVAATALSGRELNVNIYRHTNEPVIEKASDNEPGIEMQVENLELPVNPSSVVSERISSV

[21] = target: RAC-alpha serine/threonine-protein kinase (Homo sapiens) (UniProt P31749); conditions: Compound concentration 1000.0 nM
[22] = target: Tyrosine-protein kinase Fer (Homo sapiens) (UniProt P16591); conditions: Compound concentration 1000.0 nM
[23] = target: Casein kinase I isoform alpha (Homo sapiens) (UniProt P48729); conditions: Compound concentration 1000.0 nM
[24] = target: Hepatocyte growth factor receptor (Homo sapiens) (UniProt P08581); conditions: Compound concentration 1000.0 nM
[25] = target: Calcium/calmodulin-dependent protein kinase kinase 1 (Homo sapiens) (UniProt Q8N5S9); conditions: Compound concentration 1000.0 nM
[26] = target: Interleukin-1 receptor-associated kinase 1 (Homo sapiens) (UniProt P51617); conditions: Compound concentration 1000.0 nM
[27] = target: Mitogen-activated protein kinase 15 (Homo sapiens) (UniProt Q8TD08); conditions: Compound concentration 1000.0 nM
[28] = target: Dual specificity mitogen-activated protein kinase kinase 6 (Homo sapiens) (UniProt P52564); conditions: Compound concentration 1000.0 nM
[29] = target: Receptor-type tyrosine-protein kinase FLT3 (Homo sapiens) (UniProt P36888); conditions: Compound concentration 1000.0 nM
[30] = target: Serine/threonine-protein kinase MARK1 (Homo sapiens) (UniProt Q9P0L2); conditions: Compound concentration 1000.0 nM
[31] = target: Mast/stem cell growth factor receptor Kit (Homo sapiens) (UniProt P10721); conditions: Compound concentration 1000.0 nM
[32] = target: Calcium/calmodulin-dependent protein kinase type 1G (Homo sapiens) (UniProt Q96NX5); conditions: Compound concentration 1000.0 nM
[33] = tested on: Mast/stem cell growth factor receptor Kit (Homo sapiens), P10721 [A829P]; conditions: Compound concentration 1000.0 nM
[34] = target: Wee1-like protein kinase 2 (Homo sapiens) (UniProt P0C1S8); conditions: Compound concentration 1000.0 nM
[35] = tested on: Epidermal growth factor receptor (Homo sapiens), P00533 [L861Q]; conditions: Compound concentration 1000.0 nM
[36] = target: GABA-A receptor; anion channel (Rattus norvegicus) (UniProt O09028+P15431+P18506+P18508+P19969+P20236+P23574+P23576+P28471+P28473+P30191+P62813+P63079+P63138+Q91ZM7+Q9ES14); conditions: Compound concentration 10.0 uM
[37] = tested on: Tyrosine-protein kinase ABL1 (Homo sapiens), P00519 [T315I]; conditions: Compound concentration 1000.0 nM

Chain of Serine/threonine-protein kinase Nek3 (Homo sapiens) (P51956 whole entry): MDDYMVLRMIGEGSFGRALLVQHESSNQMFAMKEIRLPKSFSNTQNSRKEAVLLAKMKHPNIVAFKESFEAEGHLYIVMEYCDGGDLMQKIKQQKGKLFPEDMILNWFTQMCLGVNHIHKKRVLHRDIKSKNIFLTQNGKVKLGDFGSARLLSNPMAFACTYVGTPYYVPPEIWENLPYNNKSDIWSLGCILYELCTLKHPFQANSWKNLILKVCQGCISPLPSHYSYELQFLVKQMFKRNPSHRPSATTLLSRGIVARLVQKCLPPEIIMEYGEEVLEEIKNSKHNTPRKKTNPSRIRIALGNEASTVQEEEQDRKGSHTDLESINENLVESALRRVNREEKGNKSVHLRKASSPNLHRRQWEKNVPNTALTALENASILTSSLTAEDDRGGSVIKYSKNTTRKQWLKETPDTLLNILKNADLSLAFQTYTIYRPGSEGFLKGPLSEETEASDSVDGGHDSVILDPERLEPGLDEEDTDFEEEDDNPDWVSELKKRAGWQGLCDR
Chain of Casein kinase I isoform alpha (Homo sapiens) (P48729 2-337 limits assumed): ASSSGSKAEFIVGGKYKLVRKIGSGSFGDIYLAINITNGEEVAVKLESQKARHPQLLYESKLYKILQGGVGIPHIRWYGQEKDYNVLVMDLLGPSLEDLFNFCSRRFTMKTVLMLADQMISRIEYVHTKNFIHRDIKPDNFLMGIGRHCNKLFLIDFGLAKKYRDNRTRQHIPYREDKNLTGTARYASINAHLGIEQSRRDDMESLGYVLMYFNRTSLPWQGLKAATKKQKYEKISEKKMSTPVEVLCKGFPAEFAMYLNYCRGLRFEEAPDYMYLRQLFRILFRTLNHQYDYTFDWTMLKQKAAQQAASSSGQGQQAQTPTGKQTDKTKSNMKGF
Chain of Beta-3 adrenergic receptor (P13945 whole entry): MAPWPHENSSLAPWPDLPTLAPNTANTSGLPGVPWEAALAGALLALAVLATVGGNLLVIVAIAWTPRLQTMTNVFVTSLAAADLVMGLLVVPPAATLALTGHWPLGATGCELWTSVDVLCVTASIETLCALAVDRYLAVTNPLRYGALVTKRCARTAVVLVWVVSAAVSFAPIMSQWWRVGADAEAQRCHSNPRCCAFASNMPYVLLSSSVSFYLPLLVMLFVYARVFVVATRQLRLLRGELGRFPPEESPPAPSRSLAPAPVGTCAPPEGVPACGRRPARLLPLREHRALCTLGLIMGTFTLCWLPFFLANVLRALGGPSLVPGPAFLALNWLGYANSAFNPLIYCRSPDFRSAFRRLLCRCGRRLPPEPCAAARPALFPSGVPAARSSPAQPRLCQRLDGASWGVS
Chain of Serine/threonine-protein kinase Nek5 (Homo sapiens) (Q6P3R8 whole entry): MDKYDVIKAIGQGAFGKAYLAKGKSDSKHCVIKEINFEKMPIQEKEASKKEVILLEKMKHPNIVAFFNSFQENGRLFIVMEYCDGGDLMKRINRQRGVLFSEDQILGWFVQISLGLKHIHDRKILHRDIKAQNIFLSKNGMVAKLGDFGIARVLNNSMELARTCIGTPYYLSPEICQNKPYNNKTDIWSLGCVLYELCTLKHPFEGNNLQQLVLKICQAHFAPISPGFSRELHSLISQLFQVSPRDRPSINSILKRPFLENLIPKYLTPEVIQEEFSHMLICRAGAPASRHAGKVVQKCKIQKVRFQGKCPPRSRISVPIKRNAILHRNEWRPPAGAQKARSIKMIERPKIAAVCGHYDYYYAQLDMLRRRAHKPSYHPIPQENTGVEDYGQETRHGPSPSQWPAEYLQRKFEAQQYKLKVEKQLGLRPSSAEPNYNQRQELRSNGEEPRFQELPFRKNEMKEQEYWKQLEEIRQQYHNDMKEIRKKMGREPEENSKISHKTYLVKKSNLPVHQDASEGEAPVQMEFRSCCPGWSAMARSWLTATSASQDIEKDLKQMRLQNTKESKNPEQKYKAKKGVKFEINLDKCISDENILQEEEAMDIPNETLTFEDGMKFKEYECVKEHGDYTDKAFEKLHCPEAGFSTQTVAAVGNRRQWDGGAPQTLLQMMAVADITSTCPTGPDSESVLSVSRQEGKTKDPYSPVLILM
Chain of Serine/threonine-protein kinase LATS2 (Homo sapiens) (Q9NRM7 whole entry): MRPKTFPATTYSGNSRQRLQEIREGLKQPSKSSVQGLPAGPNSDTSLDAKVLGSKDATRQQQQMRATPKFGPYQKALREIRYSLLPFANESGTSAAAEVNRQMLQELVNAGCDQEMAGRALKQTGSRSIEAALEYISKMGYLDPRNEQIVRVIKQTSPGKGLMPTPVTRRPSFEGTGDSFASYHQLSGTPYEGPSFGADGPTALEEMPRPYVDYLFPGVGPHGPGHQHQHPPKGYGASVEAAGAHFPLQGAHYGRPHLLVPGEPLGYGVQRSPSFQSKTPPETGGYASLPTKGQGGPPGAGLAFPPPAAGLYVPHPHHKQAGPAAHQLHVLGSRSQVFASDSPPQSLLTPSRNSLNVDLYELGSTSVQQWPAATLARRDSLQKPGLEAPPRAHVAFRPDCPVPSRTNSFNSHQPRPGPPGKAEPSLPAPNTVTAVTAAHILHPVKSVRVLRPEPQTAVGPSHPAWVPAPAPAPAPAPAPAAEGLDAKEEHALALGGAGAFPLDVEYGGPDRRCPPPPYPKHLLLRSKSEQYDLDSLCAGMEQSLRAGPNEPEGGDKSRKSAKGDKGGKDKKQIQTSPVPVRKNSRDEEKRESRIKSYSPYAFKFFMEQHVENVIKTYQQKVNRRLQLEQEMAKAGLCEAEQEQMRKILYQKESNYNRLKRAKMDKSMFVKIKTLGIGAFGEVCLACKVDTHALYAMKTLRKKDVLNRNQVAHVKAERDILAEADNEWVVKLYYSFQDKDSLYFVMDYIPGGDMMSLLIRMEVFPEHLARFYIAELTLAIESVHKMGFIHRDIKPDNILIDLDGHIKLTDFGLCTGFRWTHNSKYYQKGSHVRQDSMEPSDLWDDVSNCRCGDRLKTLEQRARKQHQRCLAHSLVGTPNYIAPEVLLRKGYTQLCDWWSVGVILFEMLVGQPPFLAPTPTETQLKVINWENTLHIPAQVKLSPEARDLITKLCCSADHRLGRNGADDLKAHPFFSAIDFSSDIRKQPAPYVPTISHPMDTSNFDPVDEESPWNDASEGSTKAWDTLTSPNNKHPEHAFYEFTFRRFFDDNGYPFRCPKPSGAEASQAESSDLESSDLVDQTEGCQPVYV
Chain of Muscarinic acetylcholine receptor M4 (Homo sapiens) (P08173 whole entry): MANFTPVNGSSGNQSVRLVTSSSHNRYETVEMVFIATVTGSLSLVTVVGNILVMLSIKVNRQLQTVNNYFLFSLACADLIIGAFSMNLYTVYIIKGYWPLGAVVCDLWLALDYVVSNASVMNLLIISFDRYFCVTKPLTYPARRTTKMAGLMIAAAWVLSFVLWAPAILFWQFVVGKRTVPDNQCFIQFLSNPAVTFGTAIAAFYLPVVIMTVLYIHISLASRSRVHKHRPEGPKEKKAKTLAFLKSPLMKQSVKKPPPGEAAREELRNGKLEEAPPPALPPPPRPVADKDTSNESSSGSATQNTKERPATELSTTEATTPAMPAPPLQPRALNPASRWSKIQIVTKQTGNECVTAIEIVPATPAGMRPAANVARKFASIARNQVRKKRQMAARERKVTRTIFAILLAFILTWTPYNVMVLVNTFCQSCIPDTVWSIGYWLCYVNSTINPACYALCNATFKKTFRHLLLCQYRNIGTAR
Chain of Beta-adrenergic receptor kinase 1 (Homo sapiens) (P25098 whole entry): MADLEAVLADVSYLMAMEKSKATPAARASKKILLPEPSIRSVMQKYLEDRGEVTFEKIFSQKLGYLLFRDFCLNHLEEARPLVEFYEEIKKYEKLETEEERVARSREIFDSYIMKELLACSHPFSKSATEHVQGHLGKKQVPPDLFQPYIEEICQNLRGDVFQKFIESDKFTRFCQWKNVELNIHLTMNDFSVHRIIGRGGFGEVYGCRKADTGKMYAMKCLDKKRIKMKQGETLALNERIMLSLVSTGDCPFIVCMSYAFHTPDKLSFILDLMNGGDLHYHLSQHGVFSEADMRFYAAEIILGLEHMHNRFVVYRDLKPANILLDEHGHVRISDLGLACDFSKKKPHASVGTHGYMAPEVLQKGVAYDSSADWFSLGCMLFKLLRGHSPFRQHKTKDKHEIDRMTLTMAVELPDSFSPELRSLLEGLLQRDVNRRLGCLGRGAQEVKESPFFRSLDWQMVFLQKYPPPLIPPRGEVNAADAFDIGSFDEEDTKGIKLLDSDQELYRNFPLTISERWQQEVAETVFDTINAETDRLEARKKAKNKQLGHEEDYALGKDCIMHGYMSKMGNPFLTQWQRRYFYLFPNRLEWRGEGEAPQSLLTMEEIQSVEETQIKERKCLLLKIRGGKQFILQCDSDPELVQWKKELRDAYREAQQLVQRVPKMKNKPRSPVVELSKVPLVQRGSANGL
Chain of RAC-beta serine/threonine-protein kinase (Homo sapiens) (P31751 whole entry): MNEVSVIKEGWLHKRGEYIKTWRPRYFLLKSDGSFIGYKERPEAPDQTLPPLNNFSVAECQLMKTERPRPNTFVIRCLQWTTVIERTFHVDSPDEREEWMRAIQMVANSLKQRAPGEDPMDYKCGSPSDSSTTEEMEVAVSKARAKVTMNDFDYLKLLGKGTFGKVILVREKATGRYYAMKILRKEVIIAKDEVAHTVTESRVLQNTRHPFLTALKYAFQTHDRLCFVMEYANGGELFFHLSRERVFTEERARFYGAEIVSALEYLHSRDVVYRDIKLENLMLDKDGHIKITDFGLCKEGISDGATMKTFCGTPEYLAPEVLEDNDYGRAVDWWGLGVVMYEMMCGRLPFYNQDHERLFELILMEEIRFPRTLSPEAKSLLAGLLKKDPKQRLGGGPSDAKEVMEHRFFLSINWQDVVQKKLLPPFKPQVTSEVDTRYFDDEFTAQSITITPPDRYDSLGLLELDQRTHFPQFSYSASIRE

Structure (SMILES) | residual activity [1] [%] | residual activity [2] [%] | Ki [3] [µM] | residual activity [4] [%] | residual activity [5] [%] | residual activity [6] [%] | residual activity [7] [%] | residual activity [8] [%] | residual activity [9] [%] | residual activity [10] [%] | residual activity [11] [%] | residual activity [12] [%] | residual activity [13] [%] | residual activity [14] [%] | inhibition (D(1A) dopamine receptor) [%] | residual activity [15] [%] | residual activity [16] [%] | inhibition [17] [%] | residual activity [18] [%] | residual activity [19] [%] | other results
Cc1c(C(=O)O)cc(-c2ccc(C3CCNCC3)cc2)c2ccc(-c3ccc(C(F)(F)F)cc3)cc12 [PPTN-NC] | 100 | 100 | 3.26 | 100 | 71 | 100 | 100 | 100 | 85 | 100 | 100 | 100 | 85 | 96 | 61.4 | 100 | 99 | -5.54 | 100 | 85 | inhibition [20]: -4.53%; residual activity [21]: 100%; residual activity [22]: 100%; residual activity [23]: 81%; residual activity [24]: 100%; residual activity [25]: 100%; residual activity [26]: 100%; residual activity [27]: 100%; residual activity [28]: 100%; residual activity [29]: 100%; residual activity [30]: 100%; residual activity [31]: 100%; residual activity [32]: 100%; residual activity [33]: 98%; residual activity [34]: 100%; residual activity [35]: 100%; inhibition [36]: 1.21%; residual activity [37]: 82%
O=C(O)c1cc(-c2ccc(C3CCNCC3)cc2)c2ccc(-c3ccc(C(F)(F)F)cc3)cc2c1 [PPTN] | 100 | 100 | 2.92 | 100 | 79 | 72 | 100 | 100 | 100 | 100 | 95 | 100 | 72 | 100 | 71.4 | 100 | 100 | -4.96 | 100 | 100 | inhibition [20]: 11.2%; residual activity [21]: 99%; residual activity [22]: 100%; residual activity [23]: 83%; residual activity [24]: 100%; residual activity [25]: 100%; residual activity [26]: 100%; residual activity [27]: 100%; residual activity [28]: 100%; residual activity [29]: 90%; residual activity [30]: 100%; residual activity [31]: 100%; residual activity [32]: 100%; residual activity [33]: 100%; residual activity [34]: 100%; residual activity [35]: 100%; inhibition [36]: -3.98%; residual activity [37]: 74%
